In patent US20150210741A1, “JAGARICIN DERIVATIVES AND THEIR USE AS FUNGICIDE OR ANTITUMOR AGENT” (Leibniz-Institut Für Naturstoff-Forschung Und …, priority 2012, published 2015):
Values after ≈ are worked out from the molar mass of the structure shown. Starred links: 1 amine or outer side, 2 acyl side, 3 side chain; linkers in the order of their positions; H or OH if unused. Positions of bridges follow the written chain, without caps; N, C: chain ends. Non-standard residues stand in square brackets, D forms with d. Residues, ends and D or L forms follow the SMILES beside them. *: point of attachment. Tetradecanoyl(3R-OH) = CCCCCCCCCCC[C@@H](O)CC(=O)*; X1 = C/C=C(/N[*:1])C(=O)[*:2]; Dhb = C/C=C(\N)C(=O)O

Legend:
[1] = tested on: A. fumigatus; assay: Agar diffusion antifungal bioactivity test; assay type: cell-based; conditions: Aspergillus fumigatus
Method: (§1) Janthinobacterium agaricidamnosum (DSM 9628) was retrieved from the German collection of microorganisms (DSM). The bacteria were cultured in nutrient media (605 DSM without NaCl; 1 g/L beef extract, 2 g/L yeast extract, 5 g/L peptone, 15 g/L agar). Plates and liquid cultures (shaken at 150 rpm in baffled flasks) were grown at 22° C. and 28° C., respectively. During screening plates and liquid cultures of modified nutrient agar (additional 4 g/L chitin, 100 g/L mushroom cubes), M9 (6 g/L Na2HPO4, 3 g/L KH2PO4, 0.5 g/L NaCl, 2 g/L NH4Cl, 4 g/L glucose, […], 2 mM MgSO4, 15 g/L agar), MS (20 g/L mannite, 20 g/L soy flour, 20 g/L agar) and modified VK (5 g/L glycine, 10 g/L yeast extract, 10 g/L glucose, 10 g/L corn steep, 10 g/L CaCO3, 15 g/L agar pH 6.7-7.0) media were used. For the production of jagaricin J. agaricidamnosum was grown in modified VK medium. The selection of positive J. agaricidamnosum mutants was carried out on nutrition agar supplemented with 50 μg/mL kanamycin. For the construction of pKG01, Escherichia coli Top 10 cells and E. coli ER2925 cells were used. E. coli was cultured in LB medium (10 g/L tryptone, 5 g/L yeast extract, 5 g/L NaCl, 1 g/L glucose) supplemented with 50 μg/mL kanamycin. Candida albicans, Aspergillus fumigatus and A. terreus were used for the bioactivity tests and they were cultivated on malt agar (C. albicans; 40 g/L malt extract, 4 g/L yeast extract, 15 g/L agar, pH 5.7-6.0) and potato glucose agar (A. fumigatus and A. terreus; 4 g/L potato starch infusion, 20 g/L dextrose, 15 g/L agar) plates, respectively.
(§2) 50 μL of different concentrated jagaricin solutions were each pipetted into a pierced hole (9 mm diameter) within an agar plate that was inoculated with the test strains C. albicans, A. fumigatus and A. terreus, respectively. After incubation at 24° C. over night the inhibition zone was measured. The antiproliferative and cytotoxic assay were performed as previously described (Abdou, R. et al., Phytochemistry, 2009. 71(1): p. 110-6).

[2] = tested on: A. terreus; assay: Agar diffusion antifungal bioactivity test; assay type: cell-based; conditions: Aspergillus terreus
Method: as §1, §2

[3] = tested on: C. albicans; assay: Agar diffusion antifungal bioactivity test; assay type: cell-based; conditions: Candida albicans
Method: as §1, §2

[4] = tested on: human chronic myeloid leukemia cells K-562; assay: Antiproliferative assay; assay type: cell-based; conditions: K562, K-562, antiproliferative
Method: as §2

[5] = tested on: human umbilical vein endothelial cells HUVEC; assay: Antiproliferative assay; assay type: cell-based
Method: as §2

[6] = Cytotoxic assay; assay type: cell-based; conditions: human, HeLa cells (human cervix carcinoma)
Method: as §2

[7] = tested on: bacteria; assay: Antibacterial activity (data not shown); assay type: cell-based
[8] = tested on: mushroom tissue; assay: Application of purified jagaricin on mushroom tissue; parameters: species or system Agaricus bisporus; conditions: purified jagaricin applied to mushroom tissue

For `C/C=C1\NC(=O)[C@@H](Cc2ccc(O)cc2)NC(=O)[C@@H]([C@H](C)O)NC(=O)[C@@H](NC(=O)/C(=C\C)NC(=O)C[C@H](O)CCCCCCCCCCC)[C@@H](C)OC(=O)[C@H](Cc2c[nH]cn2)NC(=O)[C@H]([C@@H](C)O)NC(=O)CNC(=O)[C@@H](CCC(N)=O)NC1=O` [jagaricin] ({Tetradecanoyl(3R-OH)}-[X1]T[dT][dY][Dhb][dQ]GTH; ester 2-C), the MIC [1] was 0.41 µM (≈ 0.484 µg/mL), the MIC [2] was 0.28 µM (≈ 0.331 µg/mL) and the MIC [3] was 0.42 µM (≈ 0.496 µg/mL). It also gave a GI50 [4] of 1 µM, a GI50 [5] of 1 µM and a CC50 [6] of 3.8 µM. The antibacterial activity [7] was “little or no antibacterial activity” and the “lesion on mushroom tissue” value [8] was “caused a superficial lesion on mushroom tissue”.
